In patent US8471027B2, “Adamantyl compounds” (Hoffmann-La Roche Inc., priority 2011, dated 2013):

Assays:
JNK1 = JNK1 (Homo sapiens, UniProt P45983); test: In vitro JNK1 Assay (TR-FRET, phosphorylation of GST-c-Jun); assay type: biochemical; details: 0.2 nM JNK1, 26.7 nM GST-c-Jun, 2 μM ATP
Description: Phosphorylation of GST-c-Jun protein (amino acid residues 1-79) was measured as JNK1 activity. […] The reaction buffer contained 50 mM HEPES, pH 7.0, 10 mM MgCl2, 1 mM DTT, 0.1 mM Na3 VO4 and 0.2 mg/mL BSA. After 30 min. incubation at room temperature, the reaction was terminated by adding buffer containing 8 mM EDTA and a polyclonal anti-phospho-c-Jun antibody (Cell Signaling #9261L), followed by an additional incubation of 30 min. at room temperature. […] Time-resolved Fluorescence Resonance Energy Transfer (TR-FRET) signals were measured 1 hr. later on the EnVision reader (Perkin Elmer). Compound potency was assessed at 10 serially diluted concentrations. Percentage of inhibition at each concentration was determined to generate an IC50 value for each compound.

[1] = tested on: phospho(Ser63)-c-jun in HK-2 cells; test: Cell-based assay for JNK inhibitors: in-cell ELISA of TNFα-stimulated phospho(Ser63)-c-jun in HK-2 cells; details: Homo sapiens, 10 ng/mL TNFα, 60 min preincubation with compound
Description: Cell-Based Assay for JNK Inhibitors
The cell-based assay employed the in-cell ELISA method to determine the ability of compounds to prevent the generation of phospho(Ser63)-c-jun in HK-2 cells (human proximal tubule cells) in response to stimulation with tumor necrosis factor α (TNFα). In brief, for quantification of phospho(Ser63)-c-jun, the cells (in 96-well format) were fixed and permeablized then incubated sequentially with a rabbit anti-phospho-c-jun First Antibody specific for the presence of the phospho-Ser63 epitope and a donkey anti-rabbit IgG Second Antibody linked to horseradish peroxidase (HRP) for colorimetric quantitation of binding. For determination of non-specific binding of the First Antibody, Blank wells were preincubated with a mouse anti-phospho(Ser63)-c-jun Blocking Antibody that prevented specific binding of the First Antibody to the phospho-Ser63 epitope, but which was not recognized by the donkey anti-rabbit IgG Second Antibody. […] Blank wells received no TNFα stimulation or compound. Additional Control wells received TNFα stimulation, but no compound. The signal obtained in this case was considered the value for 0% inhibition (Control value).
Stock cultures of HK-2 cells (ATCC, Manassas, Va.) were grown under a 5% CO2/[…] atmosphere at 37 degrees C. in Keratinocyte-SFM medium (KSFM, Invitrogen, Grand Island, N.Y.) containing 5 μg/L epidermal growth factor and 5 mg/L bovine pituitary extract (both supplied with the medium), additionally supplemented with 10% (v/v) fetal calf serum (FCS; Invitrogen, Grand Island, N.Y.) and 1% (v/v) antibiotic-antimycotic (ABAM: Sigma, St. Louis, Mo.). For assays, cells were seeded in collagen coated 96-well polystyrene plates (BD Biosciences, Franklin Lakes, N.J.) at a density of 40,000 cells/well and cultured for 24 h in the same medium (100 μL/well) followed by a further 16-24 h in 100 μL of similar medium, but without FCS. […] Cells were incubated for a further 30 minutes and then the medium was aspirated and the wells washed with 100 μL/well PBS followed by the addition of 100 μL 3.7% (v/v) Formaldehyde (Fisher Scientific, Fair Lawn, N.J.) in PBS. Plates were then allowed to stand at room temperature for 20 minutes before being washed with 200 μL/well of PBS. (Further steps were performed immediately or the plates were stored at 4 degrees C. and the assay completed the next day.) To each well was added 100 μL 1% (v/v) TritonX-100 (Sigma, St. Louis, Mo.) in PBS followed by 20 minutes standing at room temperature, washing with 200 μL/well PBS, the addition of 100 μL/well of Quenching buffer (1% (v/v) hydrogen peroxide (Sigma, St. Louis, Mo.) and 0.1% (w/v) sodium azide (Fisher Scientific, Fair Lawn, N.J.)) in PBS and a further 20 minutes at room temperature. Plates were then washed twice with 200 μL/well of 0.1% (v/v) Tween-20 (Teknova, Hollister, Calif.) in PBS before addition of 200 μL/well of 2% BSA/0.10% Tween-20 in PBS and a further 1 hour at room temperature. At this time, buffer was removed from Blank wells and replaced with 90 μL/well of mouse anti-phospho-c-jun-Ser63 (BD Bioscience, 558036) diluted 1:4000 in PBS containing 1% BSA/0.1% Tween-20 (Antibody Dilution Buffer). All other wells are replaced with 90 μL/well of rabbit anti-phospho-c-jun-Ser63 (Cell Signaling, 9261) diluted 1:250 in Antibody Dilution Buffer. After a further one hour, rabbit anti-phospho-c-jun-Ser63 is added directly to the solution in the Blank wells resulting in 1:250 dilution of this antibody. Plates were then placed on a slowly rotating platform at 4 degrees C. overnight. Wells were then washed thrice with 200 μL/well PBS/0.1% Tween-20. After addition of the third wash, the plates were placed on a slowly rotating platform for 15 minutes at room temperature. […]

Chain of JNK1 (P45983 whole entry, species assumed, the tested form may be a part): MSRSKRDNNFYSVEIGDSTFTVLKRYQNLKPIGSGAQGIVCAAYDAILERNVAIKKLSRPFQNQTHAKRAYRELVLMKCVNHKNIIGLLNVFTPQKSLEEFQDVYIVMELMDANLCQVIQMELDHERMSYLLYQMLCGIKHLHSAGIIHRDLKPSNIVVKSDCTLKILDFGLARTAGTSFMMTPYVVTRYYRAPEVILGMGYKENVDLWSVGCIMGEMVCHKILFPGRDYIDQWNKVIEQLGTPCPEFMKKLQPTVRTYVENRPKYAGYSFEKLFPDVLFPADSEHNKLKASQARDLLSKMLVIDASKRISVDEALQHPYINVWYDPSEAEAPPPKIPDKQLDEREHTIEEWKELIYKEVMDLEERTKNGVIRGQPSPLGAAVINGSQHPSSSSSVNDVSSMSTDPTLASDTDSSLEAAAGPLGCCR

Structure (SMILES)	IC50 (JNK1)	EC50 [1]
COC(=O)c1c(Cc2ccc(C(=O)N[C@H]3[C@@H]4C[C@@H]5C[C@H]3C[C@@](O)(C5)C4)cc2)c(=O)c2cccnc2n1-c1ccccc1 [Compound I-2, rel-3-[4-((1S,2R,3R,5S,7S)-5-Hydroxy-adamantan-2-ylcarbamoyl)-benzyl]-4-oxo-1-phenyl-1,4-dihydro-[1,8]naphthyridine-2-carboxylic acid methyl ester]	47 nM	8500 nM
COC(=O)c1c(Cc2ccc(C(=O)N[C@@H]3[C@@H]4C[C@@H]5C[C@H]3C[C@@](O)(C5)C4)cc2)c(=O)c2ccc(Cl)cc2n1-c1ccccc1 [Compound I-3, rel-7-Chloro-3-[4-((1S,2S,3R,5S,7S)-5-hydroxy-adamantan-2-ylcarbamoyl)-benzyl]-4-oxo-1-phenyl-1,4-dihydro-quinoline-2-carboxylic acid methyl ester]	12 nM	5800 nM
COC(=O)c1c(Cc2ccc(C(=O)N[C@H]3[C@@H]4C[C@@H]5C[C@H]3C[C@@](O)(C5)C4)cc2)c(=O)c2ccc(Cl)cc2n1-c1ccccc1 [Compound I-4, rel-7-Chloro-3-[4-((1S,2R,3R,5S,7S)-5-hydroxy-adamantan-2-ylcarbamoyl)-benzyl]-4-oxo-1-phenyl-1,4-dihydro-quinoline-2-carboxylic acid methyl ester]	51 nM	6300 nM
O=C(N[C@@H]1[C@@H]2C[C@@H]3C[C@H]1C[C@@](O)(C3)C2)c1ccc(Cc2cn(-c3ccccn3)c3cc(Cl)ccc3c2=O)cc1 [Compound I-5, rel-4-(7-Chloro-4-oxo-1-pyridin-2-yl-1,4-dihydro-quinolin-3-ylmethyl)-N-((1S,2S,3R,5S,7S)-5-hydroxy-adamantan-2-yl)-benzamide]	330 nM	
COC(=O)c1c(Cc2ccc(C(=O)N[C@@H]3[C@@H]4C[C@@H]5C[C@H]3C[C@@](OC(C)=O)(C5)C4)cc2)c(=O)c2ccc(Cl)cc2n1-c1ccccc1 [Compound I-6, rel-3-[4-((1S,2S,3R,5S,7S)-5-Acetoxy-adamantan-2-ylcarbamoyl)-benzyl]-7-chloro-4-oxo-1-phenyl-1,4-dihydro-quinoline-2-carboxylic acid methyl ester]	110 nM	4400 nM
COC(=O)c1c(Cc2ccc(C(=O)N[C@H]3[C@@H]4C[C@@H]5C[C@H]3C[C@@](N)(C5)C4)cc2)c(=O)c2cccnc2n1-c1ccccc1 [Compound I-8, rel-3-[4-((1S,2R,3R,5S,7S)-5-amino-adamantan-2-ylcarbamoyl)-benzyl]-4-oxo-1-phenyl-1,4-dihydro-[1,8]naphthyridine-2-carboxylic acid methyl ester]		44000 nM
COC(=O)c1c(Cc2ccc(C(=O)N[C@@H]3[C@@H]4C[C@@H]5C[C@H]3C[C@@](NC(=O)C(C)(C)OC(C)=O)(C5)C4)cc2)c(=O)c2ccc(Cl)cc2n1-c1ccccc1 [Compound I-12, rel-3-{4-[(1S,2S,3R,5S,7S)-5-(2-Acetoxy-2-methyl-propionylamino)-adamantan-2-ylcarbamoyl]-benzyl}-7-chloro-4-oxo-1-phenyl-1,4-dihydro-quinoline-2-carboxylic acid methyl ester]	17 nM	3300 nM

Now from value to molecule:

IC50 (JNK1)	EC50 [1]	Structure (SMILES)
27 nM	3200 nM	COC(=O)c1c(Cc2ccc(C(=O)N[C@@H]3[C@@H]4C[C@@H]5C[C@H]3C[C@@](N)(C5)C4)cc2)c(=O)c2ccc(Cl)cc2n1-c1ccccc1 [Compound I-9, rel-3-[4-((1S,2S,3R,5S,7S)-5-Amino-adamantan-2-ylcarbamoyl)-benzyl]-7-chloro-4-oxo-1-phenyl-1,4-dihydro-quinoline-2-carboxylic acid methyl ester]
30 nM	3500 nM	COC(=O)c1c(Cc2ccc(C(=O)N[C@@H]3[C@@H]4C[C@@H]5C[C@H]3C[C@@](NC(C)=O)(C5)C4)cc2)c(=O)c2ccc(Cl)cc2n1-c1ccccc1 [Compound I-10, rel-3-[4-((1S,2S,3R,5S,7S)-5-Acetylamino-adamantan-2-ylcarbamoyl)-benzyl]-7-chloro-4-oxo-1-phenyl-1,4-dihydro-quinoline-2-carboxylic acid methyl ester]
62 nM	6900 nM	COC(=O)c1c(Cc2ccc(C(=O)N[C@@H]3[C@@H]4C[C@@H]5C[C@H]3C[C@@](NC(=O)C(C)(C)C)(C5)C4)cc2)c(=O)c2ccc(Cl)cc2n1-c1ccccc1 [Compound I-11, rel-7-Chloro-3-{4-[(1S,2S,3R,5S,7S)-5-(2,2-dimethyl-propionylamino)-adamantan-2-ylcarbamoyl]-benzyl}-4-oxo-1-phenyl-1,4-dihydro-quinoline-2-carboxylic acid methyl ester]
42 nM	1900 nM	COC(=O)c1c(Cc2ccc(C(=O)N[C@@H]3[C@@H]4C[C@@H]5C[C@H]3C[C@@](NC(=O)C(C)(C)O)(C5)C4)cc2)c(=O)c2ccc(Cl)cc2n1-c1ccccc1 [Compound I-13, rel-7-Chloro-3-{4-[(1S,2S,3R,5S,7S)-5-(2-hydroxy-2-methyl-propionylamino)-adamantan-2-ylcarbamoyl]-benzyl}-4-oxo-1-phenyl-1,4-dihydro-quinoline-2-carboxylic acid methyl ester]
26 nM	3100 nM	COC(=O)c1c(Cc2ccc(C(=O)N[C@@H]3[C@@H]4C[C@@H]5C[C@H]3C[C@@](NS(=O)(=O)C3CC3)(C5)C4)cc2)c(=O)c2ccc(Cl)cc2n1-c1ccccc1 [Compound I-14, rel-7-Chloro-3-[4-((1S,2S,3R,5S,7S)-5-cyclopropanesulfonylamino-adamantan-2-ylcarbamoyl)-benzyl]-4-oxo-1-phenyl-1,4-dihydro-quinoline-2-carboxylic acid methyl ester]
57 nM	3200 nM	COC(=O)c1c(Cc2ccc(C(=O)N[C@@H]3[C@@H]4C[C@@H]5C[C@H]3C[C@@](NS(C)(=O)=O)(C5)C4)cc2)c(=O)c2ccc(Cl)cc2n1-c1ccccc1 [Compound I-15, rel-7-Chloro-3-[4-((1S,2S,3R,5S,7S)-5-methanesulfonylamino-adamantan-2-ylcarbamoyl)-benzyl]-4-oxo-1-phenyl-1,4-dihydro-quinoline-2-carboxylic acid methyl ester]
10 nM	1900 nM	COC(=O)c1c(Cc2ccc(C(=O)N[C@@H]3[C@@H]4C[C@@H]5C[C@H]3C[C@@](NCC(C)(C)O)(C5)C4)cc2)c(=O)c2ccc(Cl)cc2n1-c1ccccc1 [Compound I-16, rel-7-Chloro-3-{4-[(1S,2S,3R,5S,7S)-5-(2-hydroxy-2-methyl-propylamino)-adamantan-2-ylcarbamoyl]-benzyl}-4-oxo-1-phenyl-1,4-dihydro-quinoline-2-carboxylic acid methyl ester]
